In US6680340B2, “Anti-hypercholesterolemic drug combination” (Merck & Co., Inc., priority 2000, dated 2004):

Legend:
[1] = system: Serum cholesterol; assay: Serum cholesterol lowering in dogs dosed 15 days with fenofibrate, CGS23425 or the combination; type: in vivo
Method: Dogs were administered 50 mg/kg/day fenofibrate alone, 10 μg/kg/day CGS23425 alone, or the combination of 50 mg/kg/day fenofibrate +10 μg/kg/day CGS23425 for a period of 15 days. Cholesterol lowering was measured on treatment days 6, 8, 10, 13, 14, and 15.

[2] = system: Serum total cholesterol; assay: Serum total cholesterol lowering in rats dosed 9 days with CGS23425 in diet with and without fenofibrate
Method: Male Sprague-Dawley rats (wt 125-150 g, 10 per group) were acclimated for one week with a normal chow (Purina #5001 powder) and had free access to drinking water. The animals, with increased weight to about 200 to 250 grams, were dosed 9 days with various doses of CGS23425 (0, 0.005, 0.05 and 0.5 ppm in diet, where total diet consumption was about 10 to 15 grams per day) with and without the presence of 25 mg/kg of body weight of fenofibrate given via oral gavage once a day. After the dosing period, the animals were fasted for 18 hours and euthanized and the blood was withdrawn via cardiac puncture.

Compound | Serum cholesterol lowering in dogs (% reduction) ([1]; CGS23425 10 μg/kg/day alone, treatment day 6) | Serum cholesterol lowering in dogs (% reduction) ([1]; CGS23425 10 μg/kg/day alone, treatment day 8) | Serum cholesterol lowering in dogs (% reduction) ([1]; CGS23425 10 μg/kg/day alone, treatment day 10) | Serum cholesterol lowering in dogs (% reduction) ([1]; CGS23425 10 μg/kg/day alone, treatment day 13) | Serum cholesterol lowering in dogs (% reduction) ([1]; CGS23425 10 μg/kg/day alone, treatment day 14) | Serum cholesterol lowering in dogs (% reduction) ([1]; CGS23425 10 μg/kg/day alone, treatment day 15) | Serum cholesterol lowering in rats (% reduction) ([2]; CGS23425 0.005 ppm in diet alone (fenofibrate 0 mg/kg)) | Serum cholesterol lowering in rats (% reduction) ([2]; CGS23425 0.05 ppm in diet alone (fenofibrate 0 mg/kg)) | Serum cholesterol lowering in rats (% reduction) ([2]; CGS23425 0.5 ppm in diet alone (fenofibrate 0 mg/kg)) | Serum cholesterol lowering in dogs (% reduction) ([1]; fenofibrate 50 mg/kg/day alone, treatment day 6) | Serum cholesterol lowering in dogs (% reduction) ([1]; fenofibrate 50 mg/kg/day alone, treatment day 8) | Serum cholesterol lowering in dogs (% reduction) ([1]; fenofibrate 50 mg/kg/day alone, treatment day 10) | Serum cholesterol lowering in dogs (% reduction) ([1]; fenofibrate 50 mg/kg/day alone, treatment day 13) | Serum cholesterol lowering in dogs (% reduction) ([1]; fenofibrate 50 mg/kg/day alone, treatment day 14) | Serum cholesterol lowering in dogs (% reduction) ([1]; fenofibrate 50 mg/kg/day alone, treatment day 15) | Serum cholesterol lowering in rats (% reduction) ([2]; fenofibrate 25 mg/kg oral gavage once a day alone (CGS23425 0 ppm), fasted 18 hours) | Serum cholesterol lowering in rats (% reduction) ([2]; fenofibrate 25 mg/kg oral gavage once a day alone (CGS23425 0 ppm), fasted 18 hours, listed as fenofibrate)
Cc1cc(NC(=O)C(=O)O)cc(C)c1Oc1ccc(O)c(C(C)C)c1 [CGS23425, N-[3,5-dimethyl-4-(4′-hydroxy-3′-isopropylphenoxy)-phenyl]-oxamic acid] | 13 ± 1.2 | 15.4 ± 2.3 | 18.4 ± 3.0 | 22.9 ± 2.5 | 21.1 ± 3.9 | 24.3 ± 1.7 | 4 ± 6 | 9±4 | 3 ± 7 | – | – | – | – | – | – | – | –
CC(C)OC(=O)C(C)(C)Oc1ccc(C(=O)c2ccc(Cl)cc2)cc1 [Fenofibrate, fenofibrate] | – | – | – | – | – | – | – | – | – | 0.1 ± 2.5 | 3.5 ± 1.8 | 8.6 ± 3.4 | 12.1 ± 4.3 | 12.4 ± 7.5 | 14.3 ± 4.0 | 12 ± 5 | 12±5
